Article PMC7328663, “Agonist-specific desensitization of PGE2-stimulated cAMP signaling due to upregulated phosphodiesterase expression in human lung fibroblasts” (Naunyn-Schmiedeberg's archives of pharmacology, 2019)
Values joined by “and” are separate entries in the source; they are usually repeats but may differ in a detail not shown here. Equal entries are not always repeated.

What was measured:
[1] = tested on: HFL-1 cells; experiment: cADDis assay for cAMP (fluorescent biosensor) in HFL-1 fibroblasts; format: cell-based, human; details: for leftward shift of PGE2 concentration-response curve (reversal of desensitization) by PDE inhibitor: 10 μM inhibitor, 10 min, Fig. 7a–c; for rightward shift of PGE2 responses induced by pretreatment: 24 h pretreatment with 100 nM of the agonist vs vehicle, Fig. 5b, n = 4; for desensitization of β-AR (isoproterenol) cAMP responses by pretreatment: 24 h pretreatment with 100 nM PGE2 or 100 nM isoproterenol, Fig. 1d; for EC50: Homo sapiens, HFL1; for PGE2 maximal response: normalized to 1 μM forskolin plus 200 μM IBMX, Fig. 4 experiments; for desensitization of PGE2 cAMP responses by pretreatment: 24 h pretreatment with 100 nM isoproterenol or 1 μM forskolin, Fig. 2a, Fig. 3
Method: HFL-1 fibroblasts (ATCC, Manassas, VA, USA) were grown in Ham’s F12K medium (Thermo Fisher Scientific, Waltham, MA, USA) with 10% fetal bovine serum (Atlanta Biologicals, Flowery Branch, GA, USA) and 1% antibiotic-antimycotic solution. Cells with a passage number of 13 to 25 were used and were grown to 70–90% confluency for all studies. Cells were grown in an incubator at 37 °C and 5% CO2 levels. Medium was aspirated and cells were washed once with PBS. After aspiration of PBS, 5 mL of 0.25% trypsin-EDTA (Thermo Fisher Scientific, Waltham, MA, USA) was added for 5 min to induce cell detachment. Media was added to the flask and gently mixed to suspend detached cells, transferred to tubes, centrifuged at 500g for 5 min, then washed to remove trypsin. The cell pellet was resuspended in growth medium, and approximately 9000 sells were plated per well on 96-well plates. Cells were pretreated with PGE2, other drugs, or vehicle prior to experiments by adding 10× concentration of drug to growth media. Medium was aspirated after 24 h, and each well was washed once with warm Dulbecco’s phosphate-buffered saline before performing cADDis assay for cAMP.
The cADDis assay was purchased from Montana Molecular (Bozeman, MT, USA). HFL-1 cells were incubated with a recombinant mammalianized baculovirus (BacMam) engineered to express a genetically modified protein that is a fusion of EPAC, a cAMP effector, with the green fluorescent protein (GFP). This protein serves as a convenient and quantitative cAMP sensor. In its unbound form, the protein fluoresces, but its fluorescence is quenched upon binding of cAMP. When seeding the cells in a 96-well plate, the following components were added: […] of cells plus media, 40 μL BacMam solution, and 2 μL of trichostatin A (an inhibitor of histone deacetylase) (Sigma®, St. Louis, MO, USA). In the 96-well plate format, approximately 8900 cells were seeded per well and 2.95 × 10^8 viral particles per well were added. Trichostatin A stock concentration was 100 μM, giving a final concentration of 1 μM in the final volume of 200 μL per well. Transduced HFL-1 cells were incubated for 24 h at 37 °C and 5% CO2 levels. After incubation, medium was aspirated and replaced with 180 μL per well of 1× Dulbecco’s phosphate-buffered saline without calcium and magnesium (Thermo Fisher Scientific, Waltham, MA, USA). The 96-well plate was then covered with aluminum foil and incubated at 37 °C for 30 min. The plate was placed in a SpectraMax M5 plate reader (Molecular Devices, San Jose, CA, USA), and fluorescence was read from the bottom of the plate with an excitation wavelength of 494 nm and an emission wavelength of 522 nm for 5 min. Once variability of fluorescence was ≤ 5% in all wells, different concentrations ofPGE2 or other agents were added with a multi-pipette and the changes in fluorescence were measured every 30 s for 30 min.
Data from kinetic studies of fluorescence were normalized to the original level of fluorescence (ΔF/F0) and then fit to a single-site decay model using GraphPad Prism 7.0 (GraphPad Software Inc., San Diego, CA, USA). The plateau of each decay curve was then used as the maximal response to that given concentration of drug (Emax), and concentration-response curves were generated using nonlinear regression analysis (log [agonist] vs. response, variable slope, four parameters) using GraphPad Prism 7.0. Concentration-response curves in multiple conditions were compared using two-way analysis of variance (2-way ANOVA) with Tukey’s multiple comparison test, and significance (p value) is reported for the effect of different conditions. Statistical comparison tests (t tests, 1-way and 2-way ANOVA) were performed using GraphPad Prism.

[2] = tested on: PDE; experiment: PDE activity assays in HFL-1 cell lysates ([3H]cAMP hydrolysis); format: biochemical, human; details: for PDE activity in lysates in presence of inhibitor: roflumilast 1 μM or IBMX 1 mM in the assay, vehicle-, PGE2- and isoproterenol-pretreated cells, Fig. 6d; for bulk PDE activity vs vehicle: cells treated 24 h with 30 μM forskolin, 100 nM PGE2 or 1 μM isoproterenol, Fig. 6c
[3] = tested on: PDE3B; experiment: qRT-PCR of PDE3B mRNA after 24 h pretreatment; format: cell-based, human; details: 24 h pretreatment: 1 μM forskolin, 100 nM isoproterenol or 100 nM PGE2; Fig. 6a
Method: (§1) After 48-h incubation with the lentivirus, medium was aspirated, cells were washed once in 1× PBS, and buffer RLT was added to disrupt cell membranes. Cells were collected and RNA was isolated using RNeasy columns with a QIAcube robot (Qiagen). RNA was quantified using the NanoDrop 2000/2000c (Thermo Fisher). Reverse transcription was performed on 400 ng of RNA samples. All steps followed the SuperScript® III First-Strand Synthesis System for RT-PCR protocol (Thermo Fisher). The steps included a denaturation step at 65 °C for 5 min in the RNA/primer mixture, containing 50 ng/μL of random hexamers. Complementary DNA (cDNA) synthesis mixture was added to the RNA/primer mixture and incubated for 10 min at 25 °C, followed by 50 min at 50 °C. The reaction was terminated at 85 °C for 5 min, then chilled on ice. Finally, 1 μL of RNase H was added to each tube followed by incubation for 20 min at 37 °C. cDNA samples were either used immediately for quantitative reverse transcription polymerase chain reaction (qRT-PCR) experiments or stored at − 20 °C.
(§2) TaqMan® Gene Expression Assays (Thermo Fisher) were used for qRT-PCR reactions. The ratio of components for each reaction was as follows: 1 μL 20× TaqMan® Gene Expression Assay, 10 μL 2× TaqMan® Gene Expression Mater Mix, 4 μL cDNA (1 ng to 100 ng), and 5 μL of RNase-free water. The thermal cycler settings were as follows: step 1, 50 °C for 2 min; step 2, 95 °C for 10 min; step 3, 95 °C for 15 s; and step 4, 60 °C for 1 min. Steps 3 and 4 were repeated for a total of 40 cycles. The housekeeping genes GAPDH, β-actin, and CDKN1A were used to normalize for differences in RNA samples. PCR data were analyzed using the 2^[−ΔΔCt] method, where Ct is the cycle threshold.

[4] = tested on: EP2R; experiment: qRT-PCR of EP2R mRNA after 24 h pretreatment; format: cell-based, human; details: 24-h pretreatment with 100 nM PGE2; Fig. 6a
Method: TaqMan® Gene Expression Assays (Thermo Fisher) were used for qRT-PCR reactions. […] PCR data were analyzed using the 2^[−ΔΔCt] method, where Ct is the cycle threshold.

[5] = tested on: PDE4B; experiment: qRT-PCR of PDE4B mRNA after 24 h pretreatment; format: cell-based, human; details: 24 h pretreatment: 1 μM forskolin, 100 nM isoproterenol or 100 nM PGE2; Fig. 6a
Method: as §1, §2

[6] = tested on: PDE3A; experiment: qRT-PCR of PDE3A mRNA after 24 h pretreatment; format: cell-based, human; details: 24 h pretreatment: 1 μM forskolin, 100 nM isoproterenol or 100 nM PGE2; Fig. 6a
Method: as §1, §2

[7] = tested on: HFL-1 cells; experiment: Assay of basal cAMP (EIA of TCA extracts); format: cell-based, human; details: cells pretreated with 100 nM PGE2 for 24 h; not significant vs vehicle (p = 0.815)
Method: HFL-1 cells were washed three times with serum- and NaHCO3-free DMEM supplemented with 20 mM HEPES, pH 7.4 (DMEH), then incubated for 30 min at 37 °C. Medium was aspirated, and 250 μL of trichloroacetic acid (TCA, 7.5% w/v) was added to each well. cAMP content in TCA extracts was determined by EIA (Cayman Chemical) following the manufacturer’s instructions. The amount of cAMP was normalized to the amount of protein per sample as determined using a dye-binding protein assay (Bio-Rad).

[8] = tested on: PDE4D; experiment: qRT-PCR of PDE4D mRNA after 24 h pretreatment; format: cell-based, human; details: 24 h pretreatment: 1 μM forskolin, 100 nM isoproterenol or 100 nM PGE2; Fig. 6a
Method: as §1, §2

[9] = cells pretreated with 100 nM PGE2 for 24 h
[10] = acute cAMP increase, no pretreatment, Fig. 5a

CCOc1c2c(c(OCC)c3ccccc13)C(=O)N(c1ccc(CC(=O)NS(=O)(=O)c3ccccc3)cc1)C2 [GW-627368X]
shift of PGE2 concentration-response curve by antagonist ([1]; antagonist 100 nM, cells pretreated with 100 nM PGE2 for 24 h, Fig. 4): did not | rightward shift of PGE2 concentration-response curve by antagonist ([1]; antagonist 100 nM, vehicle-pretreated cells): did not cause a rightward shift

CC(C)Cn1c(=O)n(C)c(=O)c2[nH]cnc21 [IBMX, 3-isobutyl-1-methylxanthine]
leftward shift of PGE2 concentration-response curve (reversal of desensitization) by PDE inhibitor [1, 9]: small leftward shift that was not statistically significant | PDE activity in lysates in presence of inhibitor [2]: significantly reduced PDE activity

C=CCC1([C@@H](O)C/C=C/[C@@H]2[C@@H](C/C=C\CCCC(=O)O)[C@H](Cl)C[C@H]2O)CCC1 [ONO-AE1–259]
rightward shift of PGE2 responses induced by pretreatment [1]: 4.0 ± 1.2 fold and 4 fold | log EC50 [1, 10]: −8.29

CCCCC[C@H](O)/C=C/[C@H]1[C@H](O)CC(=O)[C@@H]1C/C=C\CCCC(=O)O [PGE2, prostaglandin E2]
desensitization of β-AR (isoproterenol) cAMP responses by pretreatment ([1]; Fig. 2b): does not cause desensitization | rightward shift of PGE2 responses induced by pretreatment [1]: 8.0 ± 2.2 fold | EC50 ([1]; acute PGE2 cAMP response, 24 h vehicle pretreatment, Table 1/Fig. 1c, mean ± SEM n = 3–10): 39.8 nM | EC50 [1, 10]: 3.31 nM | PGE2 maximal response ([1]; PGE2-pretreated cells (100 nM, 24 h)): 0.60 ± 0.09 | Emax ([1]; PGE2 response after 24 h pretreatment with 1, 10 or 100 nM PGE2 vs vehicle): None of the pretreatment conditions produced a significant reduction | PGE2 maximal response ([1]; vehicle-pretreated cells): 1.06 ± 0.10 | bulk PDE activity vs vehicle [2]: significantly increased PDE activity | bulk PDE activity vs vehicle, time course ([2]; cells treated with 100 nM PGE2 from 5 min to 24 h, after 6 h or more): significant increases | PDE3B mRNA expression [3]: Significant upregulation | EP2R mRNA levels [4]: did not observe any change | PDE4B mRNA expression, fold change over vehicle [5]: 2.6 fold | PDE3A mRNA expression, fold change over vehicle [6]: 7.3 fold | basal cAMP level [7]: 57.9 ± 13.8 fmol/mg protein | PDE4D mRNA expression, fold change over vehicle [8]: 22.3 fold

O=C1CCc2cc(OCCCCc3nnnn3C3CCCCC3)ccc2N1 [cilostazol]
leftward shift of PGE2 concentration-response curve (reversal of desensitization) by PDE inhibitor [1, 9]: had no effect

C=C[C@@]1(C)CC(=O)[C@]2(O)[C@@]3(C)[C@@H](O)CCC(C)(C)[C@@H]3[C@H](O)[C@H](OC(C)=O)[C@@]2(C)O1 [forskolin]
desensitization of PGE2 cAMP responses by pretreatment [1]: did not cause desensitization of PGE2 responses | bulk PDE activity vs vehicle [2]: significantly increased PDE activity | PDE3B mRNA expression [3]: Significant upregulation | PDE4B mRNA expression, fold change over vehicle [5]: 3.9 fold | PDE3A mRNA expression, fold change over vehicle [6]: no effect | PDE4D mRNA expression, fold change over vehicle [8]: 7.9 fold

CC(C)NCC(O)c1ccc(O)c(O)c1 (stereo not drawn) [isoproterenol]
desensitization of β-AR (isoproterenol) cAMP responses by pretreatment ([1]; Fig. 2b): induces desensitization of β-AR responses | desensitization of PGE2 cAMP responses by pretreatment [1]: does not decrease responses to PGE2 | EC50 ([1]; acute isoproterenol cAMP response, 24 h pretreatment with 100 nM isoproterenol, Fig. 2b): 2.24 nM | bulk PDE activity vs vehicle [2]: does not | PDE3B mRNA expression [3]: Significant upregulation | PDE4B mRNA expression, fold change over vehicle [5]: 1.3 fold | PDE3A mRNA expression, fold change over vehicle [6]: no effect | PDE4D mRNA expression, fold change over vehicle [8]: 5.0 fold

O=C(Nc1c(Cl)cncc1Cl)c1ccc(OC(F)F)c(OCC2CC2)c1 [roflumilast]
PDE activity in lysates in presence of inhibitor [2]: significantly reduced PDE activity

COc1ccc(C2CNC(=O)C2)cc1OC1CCCC1 (stereo not drawn) [rolipram]
leftward shift of PGE2 concentration-response curve (reversal of desensitization) by PDE inhibitor [1, 9]: 2.8 fold | effect on isoproterenol cAMP responses ([1]; 10 μM rolipram, cells pretreated with 100 nM PGE2 for 24 h, Fig. 7d): had no effect
